Usually inhibition stands for the relative decrease from the control value, in per cent.

Assay [1] can be described thus: Antiinflammatory activity in mouse neutrophils assessed as inhibition of LPS-stimulated TNFalpha cytokine expression at 1 ug/ml after 3 hrs by flow cytometeric analysis. Format: functional. As to conditions: Neutrophil.
The nature of assay [2]: Antiinflammatory activity in mouse neutrophils assessed as inhibition of LPS-stimulated IL-6 expression at 1 ug/ml after 4-5 hrs by ELISA relative to control. As to conditions: Neutrophil. It counts as functional. (In general: ELISA stands for enzyme-linked immunosorbent assay.)
Assay [3] is described as follows: Antiinflammatory activity in mouse neutrophils assessed as inhibition of LPS-stimulated IL1-beta expression at 1 ug/ml after 4-5 hrs by ELISA relative to control. It counts as functional. As to conditions: Neutrophil.
Assay [4] in a line: Antiinflammatory activity in mouse neutrophils assessed as inhibition of LPS-stimulated TNFalpha cytokine expression at 100 ug/ml after 3 hrs by flow cytometeric analysis. It counts as functional. As to conditions: Neutrophil. For orientation: A flow cytometer gives signals particle by particle.
The nature of assay [5]: Antiinflammatory activity in mouse neutrophils assessed as inhibition of LPS-stimulated IL1-beta expression after 4-5 hrs by ELISA relative to control. It counts as functional, Neutrophil.
A short description of assay [6]: Antiinflammatory activity in mouse neutrophils assessed as inhibition of LPS-stimulated IL-6 expression at 100 ug/ml after 4-5 hrs by ELISA relative to control. It counts as functional. As to conditions: Neutrophil.

`C=C1C(=O)O[C@@H]2[C@H]1CC[C@H](C)C1=C[C@H](OC(C)=O)C(=O)[C@]12C`: the inhibition at 1 µg/mL in assay [1] worked out at 5.46%. In the case of `C=C1C(=O)O[C@@H]2[C@H]1CC[C@H](C)C1=C[C@@H](OC(C)=O)C(=O)[C@]12C`, the inhibition at 1 µg/mL in assay [1] was 2.34%.

Turning to `C=C1C(=O)O[C@@H]2[C@H]1CC[C@H](C)[C@]1(OC(C)=O)C=CC(=O)[C@@]21C`, the inhibition at 1 µg/mL in assay [1] was -1.17%. For `C=C1C(=O)O[C@@H]2[C@H]1CC[C@H](C)[C@]1(OC(=O)CC)C=CC(=O)[C@@]21C`, the inhibition at 1 µg/mL in assay [1] was -17.2%. On to `C=C1C(=O)O[C@@H]2[C@H]1CC[C@H](C)[C@]1(OC(=O)CCC)C=CC(=O)[C@@]21C`, for which the inhibition at 1 µg/mL in assay [1] turned out to be 14.1%. Still for that read-out and setting: next, `C=C1C(=O)O[C@@H]2[C@H]1CC[C@H](C)C1=C[C@H](OC(=O)CC)C(=O)[C@]12C`: 10.5%; `C=C1C(=O)O[C@@H]2[C@H]1CC[C@H](C)C1=C[C@H](OC(=O)CCC)C(=O)[C@]12C`: -6.64%.

Take `C=C1C(=O)O[C@@H]2[C@H]1CC[C@H](C)C1=C[C@@H](OC(=O)CC)C(=O)[C@]12C`: in assay [1], the inhibition at 1 µg/mL is -9.37%. For the compound `C=C1C(=O)O[C@@H]2[C@H]1CC[C@H](C)C1=C[C@@H](OC(=O)CCC)C(=O)[C@]12C`, in assay [1], the inhibition at 1 µg/mL is 32%. `C=C1C(=O)O[C@@H]2[C@H]1CC[C@H](C)[C@]1(C=CC(=O)O1)[C@@]2(C)O`: in assay [1], the inhibition at 1 µg/mL is 31.2%. For the compound `C[C@H]1CC[C@@H]2[C@@H](OC(=O)[C@@]23CCN=N3)[C@](C)(O)[C@@]12C=CC(=O)O2`, the inhibition at 1 µg/mL in assay [2] was 11.3%; in assay [3] it was 36%; in assay [1] it was 49.2%. Take `C=C1C(=O)O[C@@H]2[C@H]1CC[C@H](C)[C@]1(OC(C)=O)C=CC(=O)O[C@@]21C`: in assay [1], the inhibition at 1 µg/mL turned out to be 16.8%.

Consider `C=C1C(=O)O[C@@H]2[C@H]1CC[C@H](C)[C@]1(OC(=O)CC)C=CC(=O)O[C@@]21C`, for which the inhibition at 1 µg/mL in assay [1] stood at 26.9%. Regarding `C=C1C(=O)O[C@@H]2[C@H]1CC[C@H](C)[C@]1(OC(=O)CCC)C=CC(=O)O[C@@]21C`, in assay [1], the inhibition at 1 µg/mL was determined as 12.5%. Turning to `C[C@H]1CC[C@@H]2[C@@H](OC(=O)[C@@]23CCN=N3)[C@]2(C)OC(=O)C=C[C@@]12O`, the inhibition at 1 µg/mL came to 14% in assay [2], 41.4% in assay [3] and 59.8% in assay [1].

Turning to `CC1=C2CC[C@H](C)[C@]3(O)CCC(=O)O[C@@]3(C)[C@@H]2OC1=O`, the values for the inhibition at 1 µg/mL in assay [2], in assay [3] and in assay [1] were 17.1%, 40.9% and 53.1%, respectively. For the compound `C=C1C(=O)O[C@@H]2[C@H]1CC[C@H](C)[C@]1(O)C=CC(=O)O[C@@]21C`, in assay [1], the inhibition at 1 µg/mL is 41.4%. Consider `C=C1C(=O)O[C@@H]2[C@H]1CC[C@H](C)[C@]1(O)CCC(=O)[C@@]21C` [CORONOPILIN], for which, in assay [1], the inhibition at 1 µg/mL was -7.03%. Turning to `C=C1C(=O)O[C@@H]2[C@H]1CC[C@H](C)[C@]1(O)C=CC(=O)[C@@]21C` [PARTHENIN], in assay [1], the inhibition at 1 µg/mL was -0.39%.

As to `C=C1C(=O)O[C@@H]2[C@H]1CC[C@H](C)[C@]1(CCC(=O)O1)[C@@]2(C)O` [PSILOSTACHYIN A], the inhibition at 1 µg/mL in assay [1] is 39.5%. As for `COc1ccc(C2CNC(=O)C2)cc1OC1CCCC1` (centres undefined) [ROLIPRAM], the inhibition at 100 µg/mL in assay [4] was found to be 71.5%; in assay [6] it was 36.1%. The “inhibition (INH)” value in assay [5] was found to be 64.27%.

These data come from ChEMBL document CHEMBL1811867, “Psilostachyin, acetylated pseudoguaianolides and their analogues: preparation and evaluation of their anti-inflammatory potential” (2011).
